Laboratory results: patent US20080275111A1, “Novel Use of Lignan Compounds” (priority 2005, published 2008)

Columns and labels:
NO = NO production in LPS-activated microglia (Griess reagent); type: cell-based, mouse; settings: 1 μg/ml LPS
Procedure: When the microglia is activated, the expression of NO as a mediator of nerve transmission and immune response is induced (Liu, B. et al., Ann. N.Y. Acad. Sci., 962:318-331, 2002). Therefore, the effect of the lignan compound of the present invention on the NO production in microglia was examined. First, only the neocortex was isolated from the brain of 1 day-old mouse. Then, a microglia-astroglia mixture was prepared according to a method known in the art (Kim, H. Y. et al., J. Immunol., 171:6072-6079, 2003). The microglia-astroglia mixture was then divided at a ratio of 4 flasks/1 head and cultured in MEM medium containing 10% FBS in a 75 cm^2 flask for 2 weeks. The microglia was separated from the cultured cells and cultured in MEM medium containing 5% FBS for 24 hours. The tissue-cultured microglia was inoculated into MEM medium containing 5% FBS at a concentration of 1.5×10^4 cells/well and cultured in a 96-well plate. After 1 day of cultivation, the microglia was treated with 1 μg/ml of LPS (Sigma) to induce activation of the microglia. […] Then, the cell-cultured medium was collected and NO production was measured. The NO production was analyzed by measuring the amount of nitrite as a stable metabolite of NO in the cell-cultured medium using Griess reagent kit (Molecular Probe). […] Then, the absorbance of the resulting solution was measured with a microplate reader at 548 nm.

[1] = test system: tissue-cultured hippocampus neuron; assay: Reactive oxygen species production induced by BSO in tissue-cultured hippocampus neuron (DCFDA); type: cell-based, mouse; settings: 1 mM BSO for 8 hours, compound 0.1, 0.5 and 1 μM; control not treated with BSO
Procedure: Then, the antioxidant effect of the lignan compound of the present invention in the tissue-cultured hippocampus neuron was analyzed. For this analysis, the hippocampus of a fetus extracted from a pregnant (18 days) mouse was cultured in neurobasal medium (Gibco BRL) containing B-27 supplements and 2 mM L-glutamine for 10 days. To induce oxidative stress to the tissue-cultured hippocampus neuron, it was treated with 1 mM BSO for 8 hours. Here, the tissue-cultured hippocampus neuron was also treated with each concentration (0.1, 0.5 and 1 μM) of the lignan compound of the present invention simultaneously to analyze the reactive oxygen species-inhibitory effect of the lignan compound of the present invention. The control was not treated with BSO. Then, the amount of reactive oxygen species produced was measured by a method known in the art (Jung, Y. S., Biochem Biophys Res Commun., 320(3):789-94, 2004) using 10 μM DCFDA(molecular probes).

[2] = Toxicity in oral administration; settings: rat, in vivo; oral administration to rats; data not shown; read-out: 50% lethal dose (LD50)
Procedure: The lignan compound of the present invention was tested for toxicity in oral administration to rats, and as a result, it was observed that the 50% lethal dose (LD50) was more than 2,000 mg/kg (Data is not shown).

cell line HT-22 = assay: Cytotoxicity in cell line HT-22; type: cell-based; settings: HT-22, 1, 5 and 10 μM, 24 hours, stated for 10 μM
Procedure: In order to examine the cytotoxicity effect of macelignan itself, a cell line HT-22 derived from the hippocampus was treated with macelignan at concentrations (1, 5 and 10 μM) for 24 hours.

TNF-α = TNF-α production in LPS-activated microglia (ELISA); type: cell-based, rat; settings: 1 μg/ml LPS, compound 2.5 and 10 μM, 24 hours
Source text: When the microglia is activated by LPS, it synthesizes and secretes various pro-inflammatory cytokines such as IL-1, IL-6 and TNF-α (Chen, S. Neurobiol. Aging, 17:781-787, 1996). Therefore, in order to examine the anti-inflammatory effect of the lignan compound of the present invention, the effect of the lignan compound of the present invention on the production of IL-6 and TNF-α in the activated microglia. First, only the neocortex was isolated from the brain of 1 day-old rat. Then, a microglia-astroglia mixture was prepared according to a method known in the art (Kim, H. Y. et al., J. Immunol., 171:6072-6079, 2003). […] Then, the amount of IL-6 and TNF-α secreted into the cell cultured medium was measured with the solid-phase ELISA system (RPN2742 for IL-6, RPN2744 for TNF-α, Amersham Bioscience). For this analysis, 50 μl of the supernatant of the cultured medium of microglia and 50 μl of the standard of each material (purely isolated and quantified IL-6 or TNF-α) were added into a 96-well plate coated with an antibody specific to mouse IL-6 and TNF-α. […] Then, 100 μl of a stop solution (Amersham Bioscience) was added into each well to stop the reaction, and the absorbance of the solution in each well was measured with a microreader at 450 nm. […]

COc1cc(C[C@H](C)[C@H](C)Cc2ccc3c(c2)OCO3)ccc1O [macelignan, (8R,8′S)-7-(3,4-methylenedioxyphenyl)-7′-(4-hydroxy-3-methoxyphenyl)-8,8′-dimethylbutane]
NO production induced by LPS (NO; compound 2.5 and 10 μM, 16 or 24 hours): dose-dependently inhibited
inhibition at 10 µM (NO; Mus musculus, 10 μM compound, read-out: inhibition rate of NO production): ~90%
production of reactive oxygen species in the tissue-cultured hippocampus neuron [1]: in the similar level as the control
LD50 [2]: > 2000 mg/kg
cytotoxicity (cell line HT-22): did not induce cytotoxicity
cytotoxicity (cell line HT-22; listed as lignan compound of the present invention): did not show cytotoxicity
production of TNF-α induced by LPS (TNF-α): dose-dependently inhibited
